According to patent US20180002319A1, “MACROCYCLIC PICOLINAMIDE COMPOUNDS WITH FUNGICIDAL ACTIVITY” (DOW AGROSCIENCES LLC, priority 2014, published 2018):

Each compound was assayed on Blumeria graminis f.sp. hordei (assay: Barley Powdery Mildew (ERYSGH) fungicidal activity). Conditions: 24 h, 1DP (1 Day Protectant), read-out: ERYSGH Disease Control.
Type: in vivo
Procedure: Technical grades of materials were dissolved in acetone, which were then mixed with nine volumes of H2O containing 110 ppm Triton X-100. The fungicide solutions were applied onto wheat seedlings using an automated booth sprayer to run-off. All sprayed plants were allowed to air dry prior to further handling. All fungicides were evaluated using the aforementioned method for their activity vs. all target diseases, unless stated otherwise. Wheat leaf blotch and brown rust activity were also evaluated using track spray applications, in which case the fungicides were formulated as EC formulations, containing 0.1% Trycol 5941 in the spray solutions. Wheat plants (variety Yuma) were grown from seed in a greenhouse in 50% mineral soil/50% soil-less Metro mix until the first leaf was fully emerged, with 7-10 seedlings per pot. These plants were inoculated with an aqueous spore suspension of Zymoseptoria tritici either prior to or after fungicide treatments. After inoculation the plants were kept in 100% relative humidity (one day in a dark dew chamber followed by two to three days in a lighted dew chamber at 20° C.) to permit spores to germinate and infect the leaf. The plants were then transferred to a greenhouse set at 20° C. for disease to develop. When disease symptoms were fully expressed on the 1st leaves of untreated plants, infection levels were assessed on a scale of 0 to 100 percent disease severity. Percent disease control was calculated using the ratio of disease severity on treated plants relative to untreated plants. Example J: Evaluation of Fungicidal Activity: Barley Powdery Mildew (Blumeria graminis f.sp. hordei; Synonym: Erysiphe graminis f.sp. hordei; Bayer Code […]) Barley seedlings (variety Harrington) were propagated in soil-less Metro mix, with each pot having 8 to 12 plants, and used in the test when first leaf was fully emerged. Test plants were inoculated by dusting with infected stock plants 24 hr after fungicide treatments. After inoculation the plants were kept in a greenhouse set at 20° C. for disease to develop. Fungicide formulation, application and disease assessment on the sprayed leaves followed the procedures as described in the Example A.

| SMILES | pest or weed control at 100 ppm [%] |
| --- | --- |
| CCCCO[C@H]1CCOC[C@H](NC(=O)c2nccc(OC)c2OCOC(C)=O)C(=O)O[C@@H](C)[C@@H]1OCc1ccccc1 [Compound 2] | < 80 |
| CCCCO[C@H]1CCOC[C@H](NC(=O)c2nccc(OC)c2OCOC(C)=O)C(=O)O[C@@H](C)[C@@H]1OC(=O)C(C)C [Compound 3] | < 80 |
| CCCCO[C@H]1CCOC[C@H](NC(=O)c2nccc(OC)c2OCOC(C)=O)C(=O)O[C@@H](C)[C@@H]1OC(=O)c1ccccc1 [Compound 4] | < 80 |
| CCCCCO[C@H]1[C@H](C)OC(=O)[C@@H](NC(=O)c2nccc(OC)c2OCOC(C)=O)CCCC[C@@H]1Oc1ccccc1 [Compound 17] | < 80 |
| CCCO[C@H]1[C@H](C)OC(=O)[C@@H](NC(=O)c2nccc(OC)c2OCOC(C)=O)CCCC[C@@H]1Oc1ccccc1 [Compound 18] | < 80 |
| COc1ccnc(C(=O)N[C@H]2CCCC[C@H](Oc3ccccc3)[C@@H](Oc3ccccc3)[C@H](C)OC2=O)c1OCOC(C)=O [Compound 19] | < 80 |
| COc1ccnc(C(=O)N[C@H]2COCC[C@H](Cc3ccccc3)[C@@H](OCC(C)C)[C@H](C)OC2=O)c1OCOC(C)=O [Compound 20] | < 80 |
| COc1ccnc(C(=O)N[C@H]2COCC[C@H](Cc3ccccc3)[C@@H](OCC(C)C)[C@H](C)OC2=O)c1OC(C)=O [Compound 21] | < 80 |

These compounds were tested on Zymoseptoria tritici (assay: Leaf Blotch of Wheat (SEPTTR) fungicidal activity). Conditions: 24 h, High Volume application, 100 ppm, wheat leaf blotch, 1 day protectant, read-out: SEPTTR disease control, 1DP (1 Day Protectant).
Type: in vivo
In short: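 Wheat seedlings (Yuma, first leaf emerged) were sprayed to run-off with compound in acetone/water containing Triton X-100 and inoculated with Z. tritici spores before or after treatment. Percent disease control comes from 0–100% severity on treated versus untreated plants.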

| SMILES | pest or weed control at 100 ppm [%] |
| --- | --- |
| CCCCO[C@H]1CCOC[C@H](NC(=O)c2nccc(OC)c2OCOC(C)=O)C(=O)O[C@@H](C)[C@@H]1OCc1ccccc1 [Compound 2] | > 80 |
| CCCCO[C@H]1CCOC[C@H](NC(=O)c2nccc(OC)c2OCOC(C)=O)C(=O)O[C@@H](C)[C@@H]1OC(=O)C(C)C [Compound 3] | > 80 |
| CCCCO[C@H]1CCOC[C@H](NC(=O)c2nccc(OC)c2OCOC(C)=O)C(=O)O[C@@H](C)[C@@H]1OC(=O)c1ccccc1 [Compound 4] | > 80 |
| CCCCO[C@H]1CCOC[C@H](NC(=O)c2nccc(OC)c2OCOC(C)=O)C(=O)O[C@@H](C)[C@@H]1OC(=O)C1CC1 [Compound 5] | > 80 |
| COc1ccnc(C(=O)N[C@H]2COCC[C@@H](OCC(C)C)[C@@H](OCC(C)C)[C@H](C)OC2=O)c1OCOC(C)=O [Compound 6] | > 80 |
| CCCCCO[C@H]1[C@H](C)OC(=O)[C@@H](NC(=O)c2nccc(OC)c2OCOC(C)=O)CCCC[C@@H]1Oc1ccccc1 [Compound 17] | > 80 |
| CCCO[C@H]1[C@H](C)OC(=O)[C@@H](NC(=O)c2nccc(OC)c2OCOC(C)=O)CCCC[C@@H]1Oc1ccccc1 [Compound 18] | > 80 |
| COc1ccnc(C(=O)N[C@H]2CCCC[C@H](Oc3ccccc3)[C@@H](Oc3ccccc3)[C@H](C)OC2=O)c1OCOC(C)=O [Compound 19] | > 80 |

Same assay, conditions: 24 h, Low Volume application, 121.5 g/H, wheat leaf blotch, 1 day protectant, read-out: SEPTTR disease control, 1DP (1 Day Protectant)

| SMILES | pest or weed control at 121.5 g/ha [%] |
| --- | --- |
| CCCCO[C@H]1CCOC[C@H](NC(=O)c2nccc(OC)c2OCOC(C)=O)C(=O)O[C@@H](C)[C@@H]1OCc1ccccc1 [Compound 2] | < 80 |
| CCCCO[C@H]1CCOC[C@H](NC(=O)c2nccc(OC)c2OCOC(C)=O)C(=O)O[C@@H](C)[C@@H]1OC(=O)c1ccccc1 [Compound 4] | < 80 |
| COc1ccnc(C(=O)N[C@H]2CCCC[C@H](Oc3ccccc3)[C@@H](Oc3ccccc3)[C@H](C)OC2=O)c1OCOC(C)=O [Compound 19] | > 80 |
| COc1ccnc(C(=O)N[C@H]2COCC[C@H](Cc3ccccc3)[C@@H](OCC(C)C)[C@H](C)OC2=O)c1OCOC(C)=O [Compound 20] | < 80 |
| COc1ccnc(C(=O)N[C@H]2COCC[C@H](Cc3ccccc3)[C@@H](OCC(C)C)[C@H](C)OC2=O)c1OC(C)=O [Compound 21] | < 80 |
| COc1ccnc(C(=O)N[C@H]2CCOC[C@H](Oc3ccccc3)[C@@H](Oc3ccccc3)[C@H](C)OC2=O)c1OCOC(C)=O [Compound 37] | > 80 |

Same assay, conditions: 72 h, High Volume application, 100 ppm, wheat leaf blotch, 3 day curative, read-out: SEPTTR disease control, 3DC (3 Day Curative)

| SMILES | pest or weed control at 100 ppm [%] |
| --- | --- |
| CCCCO[C@H]1CCOC[C@H](NC(=O)c2nccc(OC)c2OCOC(C)=O)C(=O)O[C@@H](C)[C@@H]1OCc1ccccc1 [Compound 2] | < 80 |
| CCCCO[C@H]1CCOC[C@H](NC(=O)c2nccc(OC)c2OCOC(C)=O)C(=O)O[C@@H](C)[C@@H]1OC(=O)C(C)C [Compound 3] | < 80 |
| CCCCO[C@H]1CCOC[C@H](NC(=O)c2nccc(OC)c2OCOC(C)=O)C(=O)O[C@@H](C)[C@@H]1OC(=O)c1ccccc1 [Compound 4] | < 80 |
| CCCCO[C@H]1CCOC[C@H](NC(=O)c2nccc(OC)c2OCOC(C)=O)C(=O)O[C@@H](C)[C@@H]1OC(=O)C1CC1 [Compound 5] | < 80 |
| CCCCCO[C@H]1[C@H](C)OC(=O)[C@@H](NC(=O)c2nccc(OC)c2OCOC(C)=O)CCCC[C@@H]1Oc1ccccc1 [Compound 17] | > 80 |
| CCCO[C@H]1[C@H](C)OC(=O)[C@@H](NC(=O)c2nccc(OC)c2OCOC(C)=O)CCCC[C@@H]1Oc1ccccc1 [Compound 18] | > 80 |
| COc1ccnc(C(=O)N[C@H]2CCCC[C@H](Oc3ccccc3)[C@@H](Oc3ccccc3)[C@H](C)OC2=O)c1OCOC(C)=O [Compound 19] | > 80 |

Same assay, conditions: 72 h, Low Volume application, 121.5 g/H, wheat leaf blotch, 3 day curative, read-out: SEPTTR disease control, 3DC (3 Day Curative)

| SMILES | pest or weed control at 121.5 g/ha [%] |
| --- | --- |
| COc1ccnc(C(=O)N[C@H]2CCCC[C@H](Oc3ccccc3)[C@@H](Oc3ccccc3)[C@H](C)OC2=O)c1OCOC(C)=O [Compound 19] | > 80 |
| COc1ccnc(C(=O)N[C@H]2COCC[C@H](Cc3ccccc3)[C@@H](OCC(C)C)[C@H](C)OC2=O)c1OCOC(C)=O [Compound 20] | > 80 |
| COc1ccnc(C(=O)N[C@H]2COCC[C@H](Cc3ccccc3)[C@@H](OCC(C)C)[C@H](C)OC2=O)c1OC(C)=O [Compound 21] | > 80 |
| COc1ccnc(C(=O)N[C@H]2CCOC[C@H](Oc3ccccc3)[C@@H](Oc3ccccc3)[C@H](C)OC2=O)c1OCOC(C)=O [Compound 37] | > 80 |

Each compound was assayed on Uncinula necator (assay: Grape Powdery Mildew (UNCINE) fungicidal activity). Conditions: Erysiphe necator, 24 h, 1DP (1 Day Protectant), read-out: UNCINE Disease Control.
Type: in vivo
Procedure: Technical grades of materials were dissolved in acetone, which were then mixed with nine volumes of H2O containing 110 ppm Triton X-100. The fungicide solutions were applied onto wheat seedlings using an automated booth sprayer to run-off. All sprayed plants were allowed to air dry prior to further handling. All fungicides were evaluated using the aforementioned method for their activity vs. all target diseases, unless stated otherwise. Wheat leaf blotch and brown rust activity were also evaluated using track spray applications, in which case the fungicides were formulated as EC formulations, containing 0.1% Trycol 5941 in the spray solutions. Wheat plants (variety Yuma) were grown from seed in a greenhouse in 50% mineral soil/50% soil-less Metro mix until the first leaf was fully emerged, with 7-10 seedlings per pot. These plants were inoculated with an aqueous spore suspension of Zymoseptoria tritici either prior to or after fungicide treatments. After inoculation the plants were kept in 100% relative humidity (one day in a dark dew chamber followed by two to three days in a lighted dew chamber at 20° C.) to permit spores to germinate and infect the leaf. The plants were then transferred to a greenhouse set at 20° C. for disease to develop. When disease symptoms were fully expressed on the 1st leaves of untreated plants, infection levels were assessed on a scale of 0 to 100 percent disease severity. Percent disease control was calculated using the ratio of disease severity on treated plants relative to untreated plants. Example E: Evaluation of Fungicidal Activity: Grape Powdery Mildew (Uncinula necator; Bayer Code […]) Grape seedlings (variety Carignane) were grown in soil-less Metro mix, with one plant per pot, and used in the test when approximately one month old. Plants were inoculated 24 hr after fungicide treatment by shaking spores from infected leaves over test plants. Plants were maintained in a greenhouse set at 20° C. until disease was fully developed. Fungicide formulation, application and disease assessment on the sprayed leaves followed the procedures as described in the Example A.

| SMILES | pest or weed control at 100 ppm [%] |
| --- | --- |
| CCCCO[C@H]1CCOC[C@H](NC(=O)c2nccc(OC)c2OCOC(C)=O)C(=O)O[C@@H](C)[C@@H]1OCc1ccccc1 [Compound 2] | < 80 |
| CCCCO[C@H]1CCOC[C@H](NC(=O)c2nccc(OC)c2OCOC(C)=O)C(=O)O[C@@H](C)[C@@H]1OC(=O)C(C)C [Compound 3] | < 80 |
| CCCCO[C@H]1CCOC[C@H](NC(=O)c2nccc(OC)c2OCOC(C)=O)C(=O)O[C@@H](C)[C@@H]1OC(=O)c1ccccc1 [Compound 4] | < 80 |
| CCCCO[C@H]1CCOC[C@H](NC(=O)c2nccc(OC)c2OCOC(C)=O)C(=O)O[C@@H](C)[C@@H]1OC(=O)C1CC1 [Compound 5] | < 80 |
| COc1ccnc(C(=O)N[C@H]2COCC[C@@H](OCC(C)C)[C@@H](OCC(C)C)[C@H](C)OC2=O)c1OCOC(C)=O [Compound 6] | < 80 |
| CCCCCO[C@H]1[C@H](C)OC(=O)[C@@H](NC(=O)c2nccc(OC)c2OCOC(C)=O)CCCC[C@@H]1Oc1ccccc1 [Compound 17] | > 80 |
| CCCO[C@H]1[C@H](C)OC(=O)[C@@H](NC(=O)c2nccc(OC)c2OCOC(C)=O)CCCC[C@@H]1Oc1ccccc1 [Compound 18] | < 80 |
| COc1ccnc(C(=O)N[C@H]2CCCC[C@H](Oc3ccccc3)[C@@H](Oc3ccccc3)[C@H](C)OC2=O)c1OCOC(C)=O [Compound 19] | < 80 |
| COc1ccnc(C(=O)N[C@H]2COCC[C@H](Cc3ccccc3)[C@@H](OCC(C)C)[C@H](C)OC2=O)c1OCOC(C)=O [Compound 20] | > 80 |
| COc1ccnc(C(=O)N[C@H]2COCC[C@H](Cc3ccccc3)[C@@H](OCC(C)C)[C@H](C)OC2=O)c1OC(C)=O [Compound 21] | > 80 |
| COc1ccnc(C(=O)N[C@H]2CCOC[C@H](Oc3ccccc3)[C@@H](Oc3ccccc3)[C@H](C)OC2=O)c1OCOC(C)=O [Compound 37] | > 80 |
